The nature of the series: Human HepG2 cell viability assay in 384 well format. It is filed as toxicity, cell-based. Further details: dose 125 nL, time 70.5 hour; concentration not given beside the values. To be noted: HepG2 cells, read-out: Inhibition.

`Cc1ccc(C(=O)NCc2ccnc(N(C)C)c2)c(C)c1`: the cytotoxicity at 70.5 h was found to be 1.03%.

Regarding `O=C(NCCCN1CCCCCC1=O)c1n[nH]c(=O)c2ccccc12`, the cytotoxicity at 70.5 h was -2.46%.

On to `O=C(NCCN1CCCCCC1)c1n[nH]c(=O)c2ccccc12`, for which the cytotoxicity at 70.5 h was determined as 1.79%.

Consider `O=C(Nc1cccnc1N1CCCC1)C1CCS(=O)(=O)C1` (stereo unspecified), for which the cytotoxicity at 70.5 h came to 1.04%.

For the compound `CC(C)c1noc(CCC(=O)NC2CCS(=O)(=O)C2)n1` (stereo unspecified), the cytotoxicity at 70.5 h was 0.473%.

As to `CC(C)(C)c1noc(CCC(=O)NCC2CCS(=O)(=O)C2)n1` (stereo unspecified), the cytotoxicity at 70.5 h was 1.1%.

Take `O=C(NCc1cc[nH]n1)NCC(O)c1ccccc1F` (stereo unspecified): the cytotoxicity at 70.5 h came to 0.0915%.

Turning to `O=C(NCc1cc[nH]n1)NCC(O)c1ccc(F)cc1` (stereo unspecified), the cytotoxicity at 70.5 h is 6.85%.

With `CN(C)c1cc(CNC(=O)c2ccc(Br)cc2F)ccn1`, the cytotoxicity at 70.5 h is -4.97%.

`COc1ncccc1NC(=O)C1CCOCC1`: the cytotoxicity at 70.5 h came out at 22.9%.

Turning to `Cn1cnc2c1CCN(CCOc1ccc(C#N)cc1)C2`, the cytotoxicity at 70.5 h was found to be 1.67%.

For the compound `CC(C)c1nc2c(n1C)CCN(CCCOc1ccc(C#N)cc1)C2`, the cytotoxicity at 70.5 h was 2.99%.

On to `CN(C)c1ccc(C(=O)N2CCN(CC(C)(C)O)CC2)nn1`, for which the cytotoxicity at 70.5 h is -2.1%.

Consider `CN(C)c1ncccc1CNc1cc(N2CCCC2CO)ncn1` (stereo unspecified), for which the cytotoxicity at 70.5 h was 10.5%.

`CC(C)c1noc(CCC(=O)NCC2CCC(C(N)=O)CC2)n1` (stereo unspecified): the cytotoxicity at 70.5 h turned out to be 1.53%.

`Cc1nnc(NC(=O)CN2CCc3c(nc(C4CC4)n3C)C2)s1`: the cytotoxicity at 70.5 h worked out at 6.62%.

For `CC(Cn1ccnc1)NC(=O)N(C)Cc1ccc2c(c1)OCO2` (stereo unspecified), the cytotoxicity at 70.5 h is 1.49%.

`CCc1nc(CN(C)C2CCN(CCC(=O)N3CCCCC3)C2)no1` (stereo unspecified): the cytotoxicity at 70.5 h came out at 0.593%.

As to `CCc1[nH]ncc1C(=O)N1CCCC(n2cncn2)C1` (stereo unspecified), the cytotoxicity at 70.5 h turned out to be 1.79%.

Take `CN(CCC(=O)N1CCc2sccc2C1)Cc1ccc2c(c1)OCCO2`: the cytotoxicity at 70.5 h is -2.14%.

Take `Cc1cnn(CC2CN(Cc3noc(C4CC4)n3)CCO2)c1` (stereo unspecified): the cytotoxicity at 70.5 h is -13.6%.

`c1cnn(CC2CN(Cc3nc(C4CC4)no3)CCO2)c1` (stereo unspecified): the cytotoxicity at 70.5 h turned out to be 19.7%.

`CCn1c(CNCC2CCCN2c2cccnn2)nc2ccccc21` (stereo unspecified): the cytotoxicity at 70.5 h was -9.03%.

For `CCc1nc(CN(C)C2CCN(CC(F)(F)F)C2)no1` (stereo unspecified), the cytotoxicity at 70.5 h is -4.19%.

On to `Cc1cccnc1CNC(=O)N(CCCO)C1CCc2ccccc21` (stereo unspecified), for which the cytotoxicity at 70.5 h was -12.3%.

As to `CC(C)Cc1nc(CN2CCOC(Cn3cccn3)C2)no1` (stereo unspecified), the cytotoxicity at 70.5 h amounted to 15.4%.

As for `CCc1nc(C2CCCN2Cc2nccn2CC(F)(F)F)no1` (stereo unspecified), the cytotoxicity at 70.5 h was found to be 1.64%.

For `Cc1cccc(CNC(=O)N(CCCO)C2CCc3ccccc32)n1` (stereo unspecified), the cytotoxicity at 70.5 h is -1.88%.

As for `Cc1nc(C)n(CC2CN(Cc3noc(C4CC4)n3)CCO2)n1` (stereo unspecified), the cytotoxicity at 70.5 h was -6.68%.

For `Cc1ncc2c(n1)CCN(CCCc1nc3ccccc3o1)C2`, the cytotoxicity at 70.5 h is -2.27%.

Take `COc1ccc(F)cc1C(C)NC(=O)NCCCn1cncn1` (stereo unspecified): the cytotoxicity at 70.5 h was -2.2%.

Take `CCS(=O)(=O)c1ccccc1C(=O)N1CCCC(n2cccn2)C1` (stereo unspecified): the cytotoxicity at 70.5 h amounted to 18.2%.

For the compound `CC(C)c1nc(CN2CCOC(Cn3cccn3)C2)no1` (stereo unspecified), the cytotoxicity at 70.5 h was 1.63%.

In the case of `CC(C)(C)c1nc(CN2CCOC(Cn3cccn3)C2)no1` (stereo unspecified), the cytotoxicity at 70.5 h turned out to be 0.39%.

As for `CC(C)c1nnc2n1CCN(C(=O)c1cccc(S(C)(=O)=O)c1)C2`, the cytotoxicity at 70.5 h was found to be 17%.

Turning to `CCc1nnc2n1CCN(C(=O)c1ccnc(N(C)C)c1)C2`, the cytotoxicity at 70.5 h was -2.04%.

With `Cc1ccc(NC2CCN(C(=O)c3cccc4cccnc34)CC2)nn1`, the cytotoxicity at 70.5 h was -6.15%.

Consider `Cc1nc(C2CCCN(C(=O)c3c(C)nn4cccnc34)C2)no1` (stereo unspecified), for which the cytotoxicity at 70.5 h is -4.04%.

Turning to `CC(C)c1nc(CN2CCCN(Cc3nccn3C)CC2)no1`, the cytotoxicity at 70.5 h amounted to 18.1%.

As for `Cc1nc(CN2CCCC(N(C)Cc3nccn3C)C2)no1` (stereo unspecified), the cytotoxicity at 70.5 h turned out to be 21.6%.

For the compound `Cc1cnc(CN(C)C2CCN(CCCc3ccccc3)C2)o1` (stereo unspecified), the cytotoxicity at 70.5 h came out at 10%.

For the compound `Cc1cc(CN2CCCC(c3cc(C(F)(F)F)[nH]n3)C2)no1` (stereo unspecified), the cytotoxicity at 70.5 h is -15.8%.

For the compound `N#Cc1ccc(OCCN2CCn3c(nnc3C3CC3)C2)cc1`, the cytotoxicity at 70.5 h amounted to 6.25%.

For `COc1ccc(C)cc1CN(C)CC(=O)NC1(C)CCS(=O)(=O)C1` (stereo unspecified), the cytotoxicity at 70.5 h is -15.5%.

As for `O=C(NCCNC(=O)c1scnc1Cl)c1cccs1`, the cytotoxicity at 70.5 h is -14.2%.

In the case of `O=C(NCCNC(=O)c1scnc1Cl)c1ccccc1Cl`, the cytotoxicity at 70.5 h is -8.93%.

As for `Cc1cnc(C(=O)N2CCCN(c3nc(C)cs3)CC2)cn1`, the cytotoxicity at 70.5 h was -7.69%.

On to `NC(=O)CN1CCCN(C(=O)Cc2ccc3c(c2)OCCO3)CC1`, for which the cytotoxicity at 70.5 h was -11%.

With `CCc1nnc2n1CCN(Cc1nnc(-c3occc3C)o1)C2`, the cytotoxicity at 70.5 h was -4.81%.

As to `Cc1nc(C)n(CC2CCCN2Cc2cn3cc(Cl)ccc3n2)n1` (stereo unspecified), the cytotoxicity at 70.5 h is -1.76%.

On to `CCc1ccc(C(=O)N2CCC(Nc3ccc(C)nn3)CC2)o1`, for which the cytotoxicity at 70.5 h is -4.81%.

In the case of `COc1ccc(S(=O)(=O)N2CCc3ccc(F)cc32)cc1C(=O)O`, the cytotoxicity at 70.5 h came out at 1.61%.

In the case of `Cc1nc(CN2CCCC(c3cc(C(F)(F)F)[nH]n3)C2)cs1` (stereo unspecified), the cytotoxicity at 70.5 h was -3.08%.

Take `Cc1csc(N2CCCN(C(=O)c3c(C)noc3C)CC2)n1`: the cytotoxicity at 70.5 h was -8.3%.

With `Cc1csc(N2CCN(C(=O)c3c(C)oc(C)c3C)CC2)n1`, the cytotoxicity at 70.5 h is -1.28%.

For the compound `Cc1cc(C)n(CC2CCCN2C(=O)c2ccc3nncn3c2)n1` (stereo unspecified), the cytotoxicity at 70.5 h was -4.03%.

As to `CC1CN(C)CCN1Cc1cccc(C(=O)N(C)C)c1` (stereo unspecified), the cytotoxicity at 70.5 h was 33.2%.

For `COc1ccc(C(=O)NS(=O)(=O)c2ccc(C#N)cc2C(F)(F)F)cc1`, the cytotoxicity at 70.5 h was -16.9%.

Take `COc1ccc(CNC(C)c2ccc3[nH]c(=O)[nH]c3c2)cc1` (stereo unspecified): the cytotoxicity at 70.5 h is -2.85%.

For `Cc1cc(C(=O)O)cc(S(=O)(=O)Nc2ccc3c(c2)OCO3)c1C`, the cytotoxicity at 70.5 h was 20.2%.

Take `Cc1ccc(S(=O)(=O)N2CCOc3ccccc32)cc1C(N)=O`: the cytotoxicity at 70.5 h is 14%.

With `CCc1ccc(O)c(C(=O)NC2CCN(C(=O)OC)CC2)c1`, the cytotoxicity at 70.5 h is -10.9%.

Consider `CN1CCOC(CNC(=O)Cc2ccccc2F)C1` (stereo unspecified), for which the cytotoxicity at 70.5 h is -8.56%.

Consider `CN(Cc1ccccc1)CC(O)Cn1cnc2c(cnn2C)c1=O` (stereo unspecified), for which the cytotoxicity at 70.5 h was -5.87%.

Consider `N#Cc1cccc(S(=O)(=O)NC(=O)COc2ccc3c(c2)CCC3)c1`, for which the cytotoxicity at 70.5 h was 4.27%.

Consider `Cc1cnn(C2CCCN(C(=O)c3sccc3C#N)C2)c1` (stereo unspecified), for which the cytotoxicity at 70.5 h turned out to be 28.7%.

Turning to `CC(C)(C)c1nnc(CN2CCOC(Cn3cncn3)C2)o1` (stereo unspecified), the cytotoxicity at 70.5 h was -1.42%.

Turning to `Cc1ccccc1-c1noc(CN2CCn3c(nnc3C3CC3)C2)n1`, the cytotoxicity at 70.5 h worked out at 20.5%.

With `Cc1ccc2oc(C(=O)N3CCCC(c4noc(C)n4)C3)cc2n1` (stereo unspecified), the cytotoxicity at 70.5 h is -5.41%.

For `Cc1nnc2n1CCN(C(C(=O)NC1CC1)c1ccccc1)C2` (stereo unspecified), the cytotoxicity at 70.5 h is -10.2%.

Turning to `NC(=O)c1ccc(S(=O)(=O)NC(=O)COc2ccc3c(c2)CCC3)cc1`, the cytotoxicity at 70.5 h is -6.16%.

`COCc1nc(C(=O)NS(=O)(=O)c2ccc(C)s2)cs1`: the cytotoxicity at 70.5 h was -4.27%.

With `COCc1nc(C(=O)NS(=O)(=O)c2ccc(C)cc2C)cs1`, the cytotoxicity at 70.5 h is -11.1%.

As for `CS(=O)(=O)c1ccc(NC(=O)NCc2ccc3c(c2)CCC3)cn1`, the cytotoxicity at 70.5 h is -2.56%.

As to `Cc1ccc(OCC(=O)NS(=O)(=O)c2c(C)noc2C)cc1C`, the cytotoxicity at 70.5 h is 25%.

As to `CC(C)c1nn(C)c(N2CCOCC2)c1CNCCS(C)(=O)=O`, the cytotoxicity at 70.5 h was determined as 3.3%.

Take `CN(Cc1ccccc1)CC(O)Cn1cnc2ccsc2c1=O` (stereo unspecified): the cytotoxicity at 70.5 h was -8.61%.

As to `O=C(CCCOc1ccccc1Cl)N1CCCC(n2cncn2)C1` (stereo unspecified), the cytotoxicity at 70.5 h turned out to be 11%.

On to `Cc1ncsc1C(=O)N(Cc1cccnc1)C1CC1`, for which the cytotoxicity at 70.5 h turned out to be 3.01%.

Regarding `c1ccc(OCc2ccncc2)c(CNC2CCc3ncnn3C2)c1` (stereo unspecified), the cytotoxicity at 70.5 h worked out at 17.2%.

As to `CC(C)n1ccnc1CN1CCCN(C(=O)c2cc(Cl)c[nH]2)CC1`, the cytotoxicity at 70.5 h is -3.72%.

On to `CCc1nc(C2CCCN2CCCS(=O)(=O)c2ccccc2)no1` (stereo unspecified), for which the cytotoxicity at 70.5 h was -7.66%.

As to `CC(C)c1nc(C2CCCN2Cc2ccn(C)c(=O)c2)no1` (stereo unspecified), the cytotoxicity at 70.5 h is -0.609%.

With `CCC1c2ccsc2CCN1C(=O)NCc1ccccn1` (stereo unspecified), the cytotoxicity at 70.5 h was -6.47%.

Consider `Cc1noc(C2CCN(C(=O)CCNS(C)(=O)=O)CC2)n1`, for which the cytotoxicity at 70.5 h was -17.2%.

As for `Cc1c[nH]cc1C(=O)N1CCN(CCc2cccs2)CC1`, the cytotoxicity at 70.5 h was -5.85%.

For `Cn1cc(NC(=O)N2CCC(c3ccccc3)CC2)ccc1=O`, the cytotoxicity at 70.5 h was -3.71%.

Consider `CN1CCN(C(=O)c2cccc(OCc3cscn3)c2)CC1`, for which the cytotoxicity at 70.5 h was 4.86%.

In the case of `Cn1cc(NC(=O)N2CCC(CN3CCCC3)CC2)ccc1=O`, the cytotoxicity at 70.5 h was -0.384%.

Regarding `Cc1ccc(C(=O)N2CCN(CCC(C)(C)C)CC2)c(=O)[nH]1`, the cytotoxicity at 70.5 h was -6.54%.

Turning to `CC(C)(O)CN1CCN(C(=O)c2cccnc2O)CC1`, the cytotoxicity at 70.5 h is -2.58%.

As for `NC(=O)c1cc(C2CCCN(CCOCC(F)(F)F)C2)n[nH]1` (stereo unspecified), the cytotoxicity at 70.5 h is 34.2%.

For the compound `Cn1cc(NC(=O)N2CCC(NS(C)(=O)=O)CC2)ccc1=O`, the cytotoxicity at 70.5 h was 2.55%.

Regarding `NC(=O)c1cc(C2CCCN(CCCOc3ccccc3)C2)n[nH]1` (stereo unspecified), the cytotoxicity at 70.5 h was -10.9%.

In the case of `NC(=O)c1cc(C2CCCN(CCc3ccccn3)C2)n[nH]1` (stereo unspecified), the cytotoxicity at 70.5 h is -10.6%.

Turning to `CN(Cc1noc(C2CC2)n1)C1CCN(Cc2ccncc2)C1` (stereo unspecified), the cytotoxicity at 70.5 h was -9.86%.

Turning to `CC(C)N1CC(C(=O)NCc2ccnc(-n3cccn3)c2)CC1=O` (stereo unspecified), the cytotoxicity at 70.5 h is -26.8%.

On to `CS(=O)(=O)NCC1CCCN(C(=O)COCC(F)(F)F)C1` (stereo unspecified), for which the cytotoxicity at 70.5 h was -21%.

For `CC(C)N1CCN(C(=O)Nc2cnn(CC(N)=O)c2)CC1`, the cytotoxicity at 70.5 h was found to be 18.2%.

For the compound `Cc1cnn(CC2CCCCN2Cc2cc(C)on2)c1` (stereo unspecified), the cytotoxicity at 70.5 h is -18.5%.

Regarding `c1cnn(CC2CCCCN2Cc2cn3ccsc3n2)c1` (stereo unspecified), the cytotoxicity at 70.5 h is -13.5%.

The values above are taken from ChEMBL document CHEMBL3507680, “University of Dundee, Gates Library screen for HepG2 cell viability”.
